The source of these data is US5032109A, “Electrolytic transdermal delivery of polypeptides” (Drug Delivery Systems Inc., priority 1989, dated 1991).

Structures can show the parent of a compound that is named as a salt.

For series [1] the following is noted: from Herkovits et al. 1978, cited from earlier work; for Setschenow constant, for --CH2--: average hydrophobic group; for Setschenow constant, for peptide: average peptide group; for Setschenow constant, sum: peptide plus hydrophobic; for -F.° (free energy of transfer): transfer from water to water plus cosolvent.
Series [2] in a line: Electrical conductivity of urine in diabetes insipidus volunteers wearing Pitressin patches (Model Example 2). Format: in vivo, human. To be noted: powered large patch, 300 units Pitressin, five days. On the procedure: Six adult male volunteers each having been diagnosed as having diabetes insipidus are tested. Three are fitted with the large-size human patch, as in Example 2, and the three controls are fitted with drug-loaded, identical patches without batteries.
The drug reservoirs of the large electrolytic patches contain 15 ml (300 units) of Pitressin (Parke-aDavis Co., Morris Plains, N.J.). The return reservoir contains 0.9 percent saline buffered to pH 7.2 with ammonium dihydrogen phosphate.
Urine samples are taken from each subject three times per day for five days.

Series [3] can be described thus: Total urine output of beagle dogs wearing lypressin electrolytic patches (Model Example 1). It is filed as in vivo. The settings on record: four beagle dogs, powered patch, 10 ua/cm^2, ten days, Diapid 0.185 mg lypressin/ml. On the procedure:
Eight beagle dogs are employed. All of them are clipped on the back, washed with castille soap, and fitted with the small animal electrolytic patches of Example 1, four of them without batteries.
The drug reservoir of each patch contains 6 ml. Diapid 50 USP, 0.185 mg lypressin/ml. The return reservoir contains 0.9 percent saline. A current regulator is set to deliver 10 ua/cm^2.
Over a period of ten days the total urine output of each dog is measured by standard techniques.

On the set-up of series [4]: species or system human. The settings on record: in vivo. The source says:
Ten adult female volunteers, diagnosed as having hypertension, are chosen for this experiment. All are fitted with the large-size electrolytic transdermal patch, as in Example 2. […] Five control patches have no batteries.

The nature of series [5]: Blood pressure of hypertensive volunteers wearing atriopeptin patches (Model Example 3). Format: in vivo, human. The settings on record: hypertensive female volunteers, powered patches, 0.01M atriopeptin in 0.1M sodium perchlorate, about 10 ua/cm^2. On the procedure: Ten adult female volunteers, diagnosed as having hypertension, are chosen for this experiment. All are fitted with the large-size electrolytic transdermal patch, as in Example 2. […] Five control patches have no batteries. […] The blood pressure of the ten subjects is measured four times a day.

In the case of `[I-].[K+]` [Potassium iodide], in series [1], the “Setschenow constant, for --CH2--” value is listed as 0.01; the “Setschenow constant, for peptide” value is on record as -0.083; the “Setschenow constant, sum” value is recorded as -0.073; the “-F.° (free energy of transfer)” value is given as -100 cal/mo.
`[O-][Cl+3]([O-])([O-])O` [Sodium perchlorate]: in series [1], the “Setschenow constant, for --CH2--” value is 0.021; the “Setschenow constant, for peptide” value is recorded as -0.097; the “Setschenow constant, sum” value was -0.076; the “-F.° (free energy of transfer)” value was -104 cal/mo.
For `CCCNC(N)=O` [Propylurea], in series [1], the “Setschenow constant, sum” value is -0.047 and the “-F.° (free energy of transfer)” value is -64 cal/mo.
On to `[I-].[Na+]` [Sodium iodide], for which, in series [1], the “Setschenow constant, for --CH2--” value is 0.01; the “Setschenow constant, for peptide” value is -0.087; the “Setschenow constant, sum” value is -0.077; the “-F.° (free energy of transfer)” value is -105 cal/mo.
With `NC(=O)CC[C@@H]1NC(=O)[C@H](Cc2ccccc2)NC(=O)[C@H](Cc2ccc(O)cc2)NC(=O)[C@@H](N)CSSC[C@@H](C(=O)N2CCC[C@H]2C(=O)N[C@@H](CCCN=C(N)N)C(=O)NCC(N)=O)NC(=O)[C@H](CC(N)=O)NC1=O` [Pitressin, vasopressin], in series [2], the “electrical conductivity of the urine versus control subjects (patches without batteries)” value is reported as “significantly higher”.
Regarding `N=C(N)N` [Guanidine hydrochloride, guanidine hydrochloride], in series [1], the “Setschenow constant, for --CH2--” value is -0.027; the “Setschenow constant, for peptide” value was -0.061; the “Setschenow constant, sum” value is reported as -0.088; the “-F.° (free energy of transfer)” value is -120 cal/mo.
Regarding `NCCCC[C@H](NC(=O)[C@@H]1CCCN1C(=O)[C@@H]1CSSC[C@H](N)C(=O)N[C@@H](Cc2ccc(O)cc2)C(=O)N[C@@H](Cc2ccccc2)C(=O)N[C@@H](CCC(N)=O)C(=O)N[C@@H](CC(N)=O)C(=O)N1)C(=O)NCC(N)=O` [lypressin], in series [3], the “average total urine volume versus control dogs (patches without batteries)” value is recorded as “significantly lower”.
As to `[Br-].[Na+]` [Sodium bromide], in series [1], the “Setschenow constant, for --CH2--” value is listed as 0.025; the “Setschenow constant, for peptide” value is -0.037; the “Setschenow constant, sum” value is -0.012; the “-F.° (free energy of transfer)” value was -16 cal/mo.
`CCO` [Ethanol]: in series [1], the “Setschenow constant, for --CH2--” value was -0.014; the “Setschenow constant, for peptide” value was “+0.037”; the “Setschenow constant, sum” value is on record as 0.023; the “-F.° (free energy of transfer)” value is recorded as 31 cal/mo.
As for `NC(N)=O` [Urea], in series [1], the “Setschenow constant, for --CH2--” value is -0.01; the “Setschenow constant, for peptide” value is given as -0.018; the “Setschenow constant, sum” value is listed as -0.028; the “-F.° (free energy of transfer)” value is listed as -38 cal/mo.
Turning to `CCCC(=O)[O-].[Na+]` [Sodium butyrate], in series [1], the “Setschenow constant, sum” value is on record as -0.038 and the “-F.° (free energy of transfer)” value is -51 cal/mo.
Take atriopeptin: the “drug delivered per hour” value in series [4] is “about 200 nanograms of drug per hour”. Besides, the “average blood pressure versus controls (patches without batteries)” value in series [5] is on record as “significantly lower”.
For the compound `CCC(=O)[O-].[Na+]` [Sodium proprionate], in series [1], the “Setschenow constant, sum” value is -0.017 and the “-F.° (free energy of transfer)” value is reported as -23 cal/mo.
Turning to `C1COCCO1` [Dioxane], in series [1], the “Setschenow constant, for --CH2--” value was -0.013; the “Setschenow constant, for peptide” value is given as “+0.029”; the “Setschenow constant, sum” value is on record as 0.016; the “-F.° (free energy of transfer)” value is 22 cal/mo.
Consider `[Cl-].[Na+]` [Sodium chloride], for which, in series [1], the “Setschenow constant, for --CH2--” value was 0.033; the “Setschenow constant, for peptide” value is -0.037; the “Setschenow constant, sum” value was -0.004; the “-F.° (free energy of transfer)” value is -5 cal/mo.
